SMILES strings stand for the structures.

Our source for the melting point values is patent US9974304B2, “Use of macrocyclic picolinamides as fungicides” (DOW AGROSCIENCES LLC, priority 2013, dated 2018).

`COc1ccnc(C(=O)N[C@H]2COC[C@H](Oc3ccccc3)[C@@H](CCC(C)C)[C@H](C)OC2=O)c1OC(C)=O` [Compound 47] returned a melting point of 66 to 70 °C.

Compound `COc1ccnc(C(=O)N[C@H]2COC[C@H](Oc3ccccc3)[C@@H](Cc3ccccc3)[C@H](C)OC2=O)c1OC(C)=O` [Compound 81] showed a melting point of 75 to 81 °C.
